Experimental data as given in ChEMBL document CHEMBL5385860, “Antiproliferative, antiangiogenic and apoptotic effect of new hybrids of quinazoline-4(3H)-ones and sulfachloropyridazine” (Eur J Med Chem, 2023).

Legend:
[1] = target: Vascular endothelial growth factor receptor 2 (Homo sapiens, UniProt P35968); test: Inhibition of recombinant VEGFR2 (unknown origin) by kinase glo detection reagent based assay
[2] = system: HUVEC; test: Cytotoxicity against HUVEC cells assessed as effect on cell morphology at 10 ug/ml measured after 72 hrs; type: toxicity, cell-based; settings: human, dose 10 µg/ml
[3] = system: UO-31; test: Induction of apoptosis in human UO-31 cells assessed as increase in caspase-3 level by measuring optical density by Western blot densitometry analysis (reference value: 0.095); type: functional
[4] = system: CAKI-1; test: Cytotoxicity against human CAKI-1 cells assessed as growth inhibition at 10 uM relative to control; type: functional; settings: read-out: GI
[5] = system: HOP-92; test: Cytotoxicity against human HOP-92 cells assessed as growth inhibition at 10 uM relative to control; type: functional; settings: read-out: GI
[6] = system: SNB-75; test: Cytotoxicity against human SNB-75 cells assessed as growth inhibition at 10 uM relative to control; type: functional; settings: read-out: GI
[7] = system: UO-31; test: Cytotoxicity against human UO-31 cells assessed as growth inhibition at 10 uM relative to control; type: functional; settings: read-out: GI
[8] = system: T47D; test: Cytotoxicity against human T47D cells assessed as growth inhibition at 10 uM relative to control; type: functional; settings: read-out: GI
[9] = system: Malme-3M; test: Cytotoxicity against human Malme-3M cells assessed as growth inhibition at 10 uM relative to control; type: functional; settings: read-out: GI
[10] = system: NCI-H522; test: Cytotoxicity against human NCI-H522 cells assessed as growth inhibition at 10 uM relative to control; type: functional; settings: read-out: GI
[11] = system: MDA-MB-468; test: Cytotoxicity against human MDA-MB-468 cells assessed as growth inhibition at 10 uM relative to control; type: functional; settings: read-out: GI
[12] = system: Hs-578T; test: Cytotoxicity against human Hs-578T cells assessed as growth inhibition at 10 uM relative to control; type: functional; settings: read-out: GI
[13] = system: A498; test: Cytotoxicity against human A498 cells assessed as growth inhibition at 10 uM relative to control; type: functional; settings: read-out: GI
[14] = system: UACC-62; test: Cytotoxicity against human UACC-62 cells assessed as growth inhibition at 10 uM relative to control; type: functional; settings: read-out: GI
[15] = system: MDA-MB-231; test: Cytotoxicity against human MDA-MB-231 cells assessed as growth inhibition at 10 uM relative to control; type: functional; settings: read-out: GI
[16] = system: SR; test: Cytotoxicity against human SR cells assessed as growth inhibition at 10 uM relative to control; type: functional; settings: read-out: GI
[17] = system: HOP-62; test: Cytotoxicity against human HOP-62 cells assessed as growth inhibition at 10 uM relative to control; type: functional; settings: read-out: GI
[18] = system: MCF7; test: Cytotoxicity against human MCF7 cells assessed as growth inhibition at 10 uM relative to control; type: functional; settings: read-out: GI
[19] = system: NCI-H226; test: Cytotoxicity against human NCI-H226 cells assessed as growth inhibition at 10 uM relative to control; type: functional; settings: read-out: GI
[20] = system: ACHN; test: Cytotoxicity against human ACHN cells assessed as growth inhibition at 10 uM relative to control; type: functional; settings: read-out: GI
[21] = system: LOX IMVI; test: Cytotoxicity against human LOX IMVI cells assessed as growth inhibition at 10 uM relative to control; type: functional; settings: read-out: GI
[22] = system: M14; test: cells; settings: Homo sapiens, M14, 24 h
[23] = system: HCT-116; test: Cytotoxicity against human HCT-116 cells assessed as growth inhibition at 10 uM relative to control; type: functional; settings: read-out: GI
[24] = system: M14; test: Cytotoxicity against human M14 cells assessed as growth inhibition at 10 uM relative to control; type: functional; settings: read-out: GI
[25] = system: HCT-116; test: cells; settings: Homo sapiens, HCT-116, 24 h
[26] = system: 786-0; test: Cytotoxicity against human 786-0 cells assessed as growth inhibition at 10 uM relative to control; type: functional; settings: read-out: GI
[27] = system: BT-549; test: Cytotoxicity against human BT-549 cells assessed as growth inhibition at 10 uM relative to control; type: functional; settings: read-out: GI
[28] = system: EKVX; test: Cytotoxicity against human EKVX cells assessed as growth inhibition at 10 uM relative to control; type: functional; settings: read-out: GI
[29] = system: PC-3; test: Cytotoxicity against human PC-3 cells assessed as growth inhibition at 10 uM relative to control; type: functional; settings: read-out: GI
[30] = system: CCRF-CEM; test: Cytotoxicity against human CCRF-CEM cells assessed as growth inhibition at 10 uM relative to control; type: functional; settings: read-out: GI
[31] = system: MOLT-4; test: Cytotoxicity against human MOLT-4 cells assessed as growth inhibition at 10 uM relative to control; type: functional; settings: read-out: GI
[32] = system: K562; test: Cytotoxicity against human K562 cells assessed as growth inhibition at 10 uM relative to control; type: functional; settings: read-out: GI
[33] = system: M14; test: cells; settings: Homo sapiens, M14, light or radiation study
[34] = system: U-251; test: Cytotoxicity against human U-251 cells assessed as growth inhibition at 10 uM relative to control; type: functional; settings: read-out: GI
[35] = system: SF-268; test: Cytotoxicity against human SF-268 cells assessed as growth inhibition at 10 uM relative to control; type: functional; settings: read-out: GI
[36] = system: IGROV-1; test: Cytotoxicity against human IGROV-1 cells assessed as growth inhibition at 10 uM relative to control; type: functional; settings: read-out: GI
[37] = system: RPMI-8226; test: Cytotoxicity against human RPMI-8226 cells assessed as growth inhibition at 10 uM relative to control; type: functional; settings: read-out: GI

Sequence of Vascular endothelial growth factor receptor 2 (P35968 whole entry): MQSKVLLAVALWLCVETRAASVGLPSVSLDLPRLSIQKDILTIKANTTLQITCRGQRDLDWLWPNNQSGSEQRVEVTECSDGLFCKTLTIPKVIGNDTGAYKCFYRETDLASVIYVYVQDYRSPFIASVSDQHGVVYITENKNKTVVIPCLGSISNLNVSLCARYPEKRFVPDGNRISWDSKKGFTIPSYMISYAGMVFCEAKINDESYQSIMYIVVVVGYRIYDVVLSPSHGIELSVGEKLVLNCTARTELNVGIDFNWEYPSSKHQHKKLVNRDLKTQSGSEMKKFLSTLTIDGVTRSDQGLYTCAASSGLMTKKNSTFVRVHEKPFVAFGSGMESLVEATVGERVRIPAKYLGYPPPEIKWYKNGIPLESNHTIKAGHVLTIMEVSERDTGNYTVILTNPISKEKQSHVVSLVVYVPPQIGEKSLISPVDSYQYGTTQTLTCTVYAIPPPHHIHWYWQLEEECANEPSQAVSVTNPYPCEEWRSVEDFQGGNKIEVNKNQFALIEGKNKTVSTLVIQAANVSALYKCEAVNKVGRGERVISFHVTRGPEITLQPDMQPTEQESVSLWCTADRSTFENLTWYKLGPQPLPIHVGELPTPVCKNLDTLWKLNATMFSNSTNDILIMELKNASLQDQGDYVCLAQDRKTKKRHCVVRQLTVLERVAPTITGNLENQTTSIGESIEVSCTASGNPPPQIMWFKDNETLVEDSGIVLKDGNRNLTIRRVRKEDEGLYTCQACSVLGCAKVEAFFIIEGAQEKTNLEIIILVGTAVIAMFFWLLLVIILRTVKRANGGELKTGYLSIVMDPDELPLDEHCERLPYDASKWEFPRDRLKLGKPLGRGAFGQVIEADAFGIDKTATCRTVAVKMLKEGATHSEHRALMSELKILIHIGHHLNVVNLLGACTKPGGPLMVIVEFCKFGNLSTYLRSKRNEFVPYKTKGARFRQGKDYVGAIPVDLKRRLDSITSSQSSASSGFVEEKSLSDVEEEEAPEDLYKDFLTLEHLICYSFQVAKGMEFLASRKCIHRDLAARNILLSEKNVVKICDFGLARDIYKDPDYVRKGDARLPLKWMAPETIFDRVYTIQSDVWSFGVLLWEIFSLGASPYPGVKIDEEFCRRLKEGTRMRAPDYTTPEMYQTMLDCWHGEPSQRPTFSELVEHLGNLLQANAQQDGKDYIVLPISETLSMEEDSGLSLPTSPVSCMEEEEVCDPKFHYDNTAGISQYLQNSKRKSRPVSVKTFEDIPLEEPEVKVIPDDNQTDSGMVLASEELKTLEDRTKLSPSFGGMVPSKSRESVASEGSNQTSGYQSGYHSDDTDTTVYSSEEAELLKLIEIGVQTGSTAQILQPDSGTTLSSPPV

Which IC50 [1] does the source give for O=C(CSc1nc2ccccc2c(=O)n1CCc1ccccc1)Nc1ccc(S(=O)(=O)Nc2ccc(Cl)nn2)cc1 here?
Its IC50 is 0.066 µM.

What about the Activity [2] of the same molecule?
Its Activity is “Non-Toxic”.

And the OD [3]?
Its OD is 0.772.

How did the inhibition of growth at 10 µM [4] turn out when O=C(CSc1nc2ccccc2c(=O)n1C1CCCCC1)Nc1ccc(S(=O)(=O)Nc2ccc(Cl)nn2)cc1 was run?
The inhibition of growth at 10 µM was 14%.

What about the inhibition of growth at 10 µM [5] of the same molecule?
The inhibition of growth at 10 µM was 25%.

What about the inhibition of growth at 10 µM [6] of the same molecule?
Its inhibition of growth at 10 µM is 16%.

What about the inhibition of growth at 10 µM [7] of the same molecule?
Its inhibition of growth at 10 µM is 21%.

And the inhibition of growth at 10 µM [8]?
The inhibition of growth at 10 µM was 12%.

What about the inhibition of growth at 10 µM [9] of the same molecule?
The inhibition of growth at 10 µM was 10%.

Which results are given for O=C(CSc1nc2ccccc2c(=O)n1-c1ccc(S(=O)(=O)Nc2ccc(Cl)nn2)cc1)NC1CCCCC1?
inhibition of growth at 10 µM [10]: 11%; inhibition of growth at 10 µM [5]: 11%; inhibition of growth at 10 µM [6]: 16%; inhibition of growth at 10 µM [11]: 10%; inhibition of growth at 10 µM [12]: 10%; inhibition of growth at 10 µM [13]: 11%; inhibition of growth at 10 µM [14]: 10%

How did the inhibition of growth at 10 µM [4] turn out when O=C(CSc1nc2ccccc2c(=O)n1Cc1ccccc1)Nc1ccc(S(=O)(=O)Nc2ccc(Cl)nn2)cc1 was run?
The inhibition of growth at 10 µM was 13%.

What about the inhibition of growth at 10 µM [15] of the same molecule?
The inhibition of growth at 10 µM was 13%.

And the inhibition of growth at 10 µM [16]?
The inhibition of growth at 10 µM was 10%.

And the inhibition of growth at 10 µM [7]?
The inhibition of growth at 10 µM was 21%.

And the inhibition of growth at 10 µM [17]?
The inhibition of growth at 10 µM was 11%.

What about the inhibition of growth at 10 µM [18] of the same molecule?
The inhibition of growth at 10 µM was 13%.

And the inhibition of growth at 10 µM [19]?
Its inhibition of growth at 10 µM is 12%.

And the inhibition of growth at 10 µM [20]?
The inhibition of growth at 10 µM was 10%.

Which inhibition of growth at 10 µM [21] does the source give for CNC(=O)CSc1nc2ccccc2c(=O)n1-c1ccc(S(=O)(=O)Nc2ccc(Cl)nn2)cc1 here?
Its inhibition of growth at 10 µM is 24%.

What does the source list for O=c1c2cc(Cl)cc(Cl)c2[nH]c(=S)n1-c1ccc(S(=O)(=O)Nc2ccc(Cl)nn2)cc1?
IC50 [22]: 40.9 µM; inhibition of growth at 10 µM [4]: 11%; inhibition of growth at 10 µM [10]: 10%; inhibition of growth at 10 µM [23]: 48%; inhibition of growth at 10 µM [7]: 19%; inhibition of growth at 10 µM [24]: 78%; inhibition of growth at 10 µM [13]: 12%; IC50 [25]: 20 µM; inhibition of growth at 10 µM [26]: 21%

For Cn1c(SCC(=O)Nc2ccc(S(=O)(=O)Nc3ccc(Cl)nn3)cc2)nc2ccccc2c1=O, which inhibition of growth at 10 µM [27] is on record?
The inhibition of growth at 10 µM was 17%.

What about the inhibition of growth at 10 µM [5] of the same molecule?
Its inhibition of growth at 10 µM is 17%.

What about the inhibition of growth at 10 µM [28] of the same molecule?
Its inhibition of growth at 10 µM is 10%.

And the inhibition of growth at 10 µM [7]?
Its inhibition of growth at 10 µM is 12%.

And the inhibition of growth at 10 µM [13]?
Its inhibition of growth at 10 µM is 19%.

What does the source list for O=c1c2cc3ccccc3cc2[nH]c(=S)n1-c1ccc(S(=O)(=O)Nc2ccc(Cl)nn2)cc1?
inhibition of growth at 10 µM [4]: 10%; inhibition of growth at 10 µM [10]: 10%; inhibition of growth at 10 µM [7]: 18%; inhibition of growth at 10 µM [18]: 11%; inhibition of growth at 10 µM [21]: 12%

What does the source list for O=C(CSc1nc2ccccc2c(=O)n1-c1ccc(S(=O)(=O)Nc2ccc(Cl)nn2)cc1)Nc1ccccc1?
IC50 [22]: 4.46 µM; inhibition of growth at 10 µM [4]: 12%; inhibition of growth at 10 µM [29]: 14%; inhibition of growth at 10 µM [10]: 10%; inhibition of growth at 10 µM [27]: 13%; inhibition of growth at 10 µM [30]: 11%; inhibition of growth at 10 µM [31]: 18%; inhibition of growth at 10 µM [6]: 11%; inhibition of growth at 10 µM [32]: 12%; inhibition of growth at 10 µM [11]: 15%; inhibition of growth at 10 µM [12]: 27%; inhibition of growth at 10 µM [7]: 13%; IC50 [33]: 4.76 µM; inhibition of growth at 10 µM [13]: 15%; inhibition of growth at 10 µM [34]: 22%; inhibition of growth at 10 µM [18]: 17%; inhibition of growth at 10 µM [8]: 18%; inhibition of growth at 10 µM [35]: 10%; inhibition of growth at 10 µM [36]: 13%; inhibition of growth at 10 µM [37]: 11%; inhibition of growth at 10 µM [21]: 18%; inhibition of growth at 10 µM [14]: 35%

Which inhibition of growth at 10 µM [16] does the source give for O=C(CSc1nc2ccccc2c(=O)n1-c1ccc(S(=O)(=O)Nc2ccc(Cl)nn2)cc1)Nc1ccc(S(=O)(=O)Nc2ccc(Cl)nn2)cc1 here?
The inhibition of growth at 10 µM was 13%.

What about the inhibition of growth at 10 µM [32] of the same molecule?
Its inhibition of growth at 10 µM is 12%.

What about the inhibition of growth at 10 µM [7] of the same molecule?
Its inhibition of growth at 10 µM is 12%.

What about the inhibition of growth at 10 µM [21] of the same molecule?
Its inhibition of growth at 10 µM is 10%.

Which results are given for NS(=O)(=O)c1ccc(NC(=O)CSc2nc3ccccc3c(=O)n2-c2ccc(S(=O)(=O)Nc3ccc(Cl)nn3)cc2)cc1?
inhibition of growth at 10 µM [4]: 12%; inhibition of growth at 10 µM [6]: 27%; inhibition of growth at 10 µM [12]: 13%; inhibition of growth at 10 µM [7]: 10%; inhibition of growth at 10 µM [14]: 14%
